Data reported in patent publication US20240358721A1, “GASDERMIN-D INHIBITORS AND USES THEREOF FOR TREATING PULMONARY VASO-OCCLUSION” (UNIVERSITY OF PITTSBURGH-OF THE COMMONWEALTH SYSTEM OF …, priority 2021, published 2024).
“Also recorded” adds a separate entry of the source.

System: SCD-Selp−/− mice
Assay: qFILM assessment of P-selectin-independent pulmonary vaso-occlusion in SCD-Selp−/− mice IV administered oxy-Hb
Format: in vivo, mouse
Conditions: IV 10 μmole/kg oxy-Hb with 10 mg/kg inhibitor vs oxy-Hb alone, 10 mg/kg
Text: Quantitative fluorescence intravital lung microscopy (qFILM) was used to assess the absence or presence of platelet-neutrophil aggregate mediated pulmonary vaso-occlusion. Pulmonary microcirculation (pseudo-colored purple), neutrophils (red) and platelets (pseudo-colored green) were labeled in vivo by IV administration of FITC dextran, AF546-anti-Ly6G Ab and V450-anti-CD49b Ab, respectively. […] White arrows denote the direction of blood flow within the pulmonary arterioles. Alveoli are marked with asterisks. Scale bars 20 μm. The diameter of pulmonary arteriole in B-E is ˜22 μm, 32 μm, 31.5 μm, and 31 μm, respectively. […] Refer Online Data Supplement for details. […] The data for mice with SCD IV administered 10 oxy-Hb (n=5 mice; 75 FOVs) are included as black bars in FIGS. 1N and 1O for relative comparison. qFILM FOV size ˜65 536 μm^2. Data represent mean ±SE and are compared using Student t test. *P<0.05 (FIG. 1P) Schematic showing the main findings of the study. The sterile inflammatory milieu (DAMPs, IFN-I signaling, and ROS) in SCD promotes caspase-4 (humans) or caspase-11 (mouse)-dependent cleavage of neutrophil GSDMD into the active form GSDMD-NT, leading to the shedding of NETs in the liver microcirculation. Once shed, these NETs are carried by the blood as cNETs to the lung, where they promote neutrophil-platelet aggregation in the pulmonary arterioles, leading to PVO and lung injury (acute chest syndrome).
SCD-Selp^−/− mice were IV administered 10 μmole/kg oxy-Hb (10 oxy-Hb) without or with 10 mg/kg GSDMD inhibitor (Disulfiram). Quantitative fluorescence intravital lung microscopy (qFILM) was used to assess the absence or presence of pulmonary vasoocclusion using the same experimental scheme described in FIG. 1A. Pulmonary vasoocclusions (PVOs) were compared between treatment groups using following two parameters: Number of PVOs per Field of View (#PVOs/FOV) and number of large PVOs (with area>1000 μm^2) per FOV. […] The data for SCD mice IV administered 10 oxy-Hb (n=5 mice; 75 FOVs) is included as black bars in FIGS. 4A and 4B for relative comparison. FOV size˜65,536 μm^2. […]
(FIG. 5A) Experimental scheme: SCD or SCD-Selp^−/− mice were IV administered 10 μmole/kg oxy-Hb (10 oxy-Hb) without or with 10 mg/kg GSDMD inhibitors LDC75591 or Disulfiram. In FIGS. 5C-5D, venous blood was processed to generate PPP and cNETs detected in PPP using Imaging Flow Cytometry. Imaging Flow Cytometry data was quantified to estimate concentration of cNETs (#cNETs/μl of plasma). In FIGS. 5B, and 5E-5F, quantitative fluorescence intravital lung microscopy (qFILM) was used to detect arrival of circulating NETs (cNETs) within the lung microcirculation. Number of cNETs entering per FOV over a 1-minute duration (#cNETs/FOV/min) were quantified. […]

COc1ccccc1-c1cc2n(n1)Cc1ccc(NC(C)=O)cc1OC2 [LDC7559]
Number of PVOs per Field of View (#PVOs/FOV): significantly reduced; also recorded: threefold | number of large PVOs (with area>1000 μm^2) per FOV: absent; also recorded: absence
